These results are taken from patent publication US12064437B2, “Methods for treating systemic lupus erythematosus and the use of biomarkers as a predictor of clinical sensitivity to therapies” (CELGENE CORPORATION, priority 2020, dated 2024).

This test has as its system subjects with active autoantibody-positive SLE. Kind of test: Phase 2b study in SLE: Lupus Low Disease Activity State (LLDAS) response. The following applies: for percentages of LLDAS responders: Week 24; for LLDAS response at Week 24, stratified difference from placebo / percentage of subjects who achieved LLDAS response at Week 24: overall subjects; for percentage of subjects who achieved LLDAS response at Week 24: NRI, ITT. The test is classed as in vivo, human. As to the method:
The pharmacokinetics, pharmacodynamics (PD), efficacy, and safety of oral iberdomide ((S)-3-[4-({4-[(morpholin-4-yl)methyl]phenyl}methoxy)-1-oxo-1,3-dihydro-2H-isoindol-2-yl]piperidine-2,6-dione-hydrogen chloride (1/1)) were evaluated in a phase 2b study in subjects with active autoantibody-positive SLE.
Adult SLE patients (N=288) with a ≥6-month history of SLE and SLE Disease Activity Index (SLEDAI 2K) ≥6 were randomized to placebo (n=83) or iberdomide 0.15 mg QD (n=42), 0.3 mg QD (n=82), or 0.45 mg QD (n=81). Clinical response was determined by the SLE Responder Index 4 (SRI-4) at week 24 for all patients and within pre-specified biomarker-enriched subsets based on expression of Ikaros, Aiolos, the Type 1 IFN signature (IFI27, IFI44, IFI44L, RSAD2), and other gene modules measured from fingerstick blood collected at baseline (Modular Immune Profile Test, DxTerity Diagnostics, Inc.). The primary objective of the study was to evaluate the clinical efficacy of 3 doses of iberdomide (0.45 mg once per day [QD], 0.30 mg QD, or 0.15 mg QD) compared to placebo, for the treatment of active SLE using the SLE Responder Index at Week 24.
The percentages of LLDAS responders for key mRNA and DNA subgroups were as follows: • IKZF1 high: 23.4%, 17.0%, and 14.3% for 0.45 mg, 0.30 mg, and 0.15 mg QD iberdomide, respectively, compared with 12.5% for placebo. • IKZF3 high: 27.8%, 9.4%, 14.3%, respectively, compared with 11.1% for placebo. • Type 1 IFN module high: 17.5%, 14.3%, and 24.0%, respectively, compared with 8.3% for placebo. • Ikaros IFN module high: 16.1%, 14.3%, and 20.0%, respectively, compared with 8.2% for placebo. Drug Dose, Drug Concentration, and Relationship to Response

Take `O=C1CC[C@H](N2Cc3c(OCc4ccc(CN5CCOCC5)cc4)cccc3C2=O)C(=O)N1` [iberdomide, (S)-3-[4-({4-[(morpholin-4-yl)methyl]phenyl}methoxy)-1-oxo-1,3-dihydro-2H-isoindol-2-yl]piperidine-2,6-dione-hydrogen chloride (1/1)]: the “percentages of LLDAS responders” value (IKZF1 high, 0.15 mg QD) is recorded as 14.3%; the “percentages of LLDAS responders” value (IKZF1 high, 0.30 mg QD) is on record as 17.0%; the “percentages of LLDAS responders” value (IKZF1 high, 0.45 mg QD) came to 23.4%; the “percentages of LLDAS responders” value (IKZF3 high, 0.15 mg QD) worked out at 14.3%; the “percentages of LLDAS responders” value (IKZF3 high, 0.30 mg QD) turned out to be 9.4%; the “percentages of LLDAS responders” value (IKZF3 high, 0.45 mg QD) stood at 27.8%. Besides, the “percentages of LLDAS responders” value (Ikaros IFN module high, 0.15 mg QD) is recorded as 20.0%; the “percentages of LLDAS responders” value (Ikaros IFN module high, 0.30 mg QD) is reported as 14.3%; the “percentages of LLDAS responders” value (Ikaros IFN module high, 0.45 mg QD) is on record as 16.1%; the “percentages of LLDAS responders” value (Type 1 IFN module high, 0.15 mg QD) came to 24.0%; the “percentages of LLDAS responders” value (Type 1 IFN module high, 0.30 mg QD) is reported as 14.3%; the “percentages of LLDAS responders” value (Type 1 IFN module high, 0.45 mg QD) stood at 17.5%. Besides, the “LLDAS response at Week 24, stratified difference from placebo” value is 6.7% (0.15 mg QD) and 6.9% (0.45 mg QD). The “percentage of subjects who achieved LLDAS response at Week 24” value (“percentage … at Week 24” below) (0.15 mg QD) worked out at 19.0%, the “percentage … at Week 24” value (0.30 mg QD) was found to be 17.1% and the “percentage … at Week 24” value (0.45 mg QD) is 19.8%.
